For data set [1], the target named is Tryptase (Homo sapiens, UniProt Q9BZJ3+Q15661+Q9NRR2). Description: Inhibitory activity of compound against human tryptase was determined. Type of data set: protein assay.
For data set [2], the target named is Coagulation factor X (Homo sapiens, UniProt P00742). Kind of data set: Inhibitory activity of compound against Coagulation factor X was determined.
Data set [3] deals with Urokinase-type plasminogen activator (Homo sapiens, UniProt P00749). Kind of data set: Inhibitory activity of compound against Urokinase-type plasminogen activator was determined.
Data set [4] concerns the target Tissue-type plasminogen activator (Homo sapiens, UniProt P00750). Description: Inhibitory activity of compound against tissue type plasminogen activator was determined.
Data set [5] addresses Plasminogen (Rattus norvegicus, UniProt Q01177). Kind of data set: Inhibitory activity of compound against Plasmin was determined.
Data set [6] has as its target Prothrombin (Homo sapiens, UniProt P00734). Description: Inhibitory activity of compound against Thrombin was determined.
Data set [7] has as its target Serine protease 1 (Homo sapiens, UniProt P07477). Kind of data set: Inhibitory activity of compound against Trypsin was determined.
The nature of data set [8]: Half-life of compound was determined at pH 7. The class given is ADME.
Data set [9] in a line: Half-life of compound was determined at pH 9. Type of data set: ADME.
The nature of data set [10]: physchem.

A value given as a limit tells only on which side of the number the result lay.

The results in this text go back to ChEMBL document CHEMBL1147562, “Synthesis of potent and highly selective nonguanidine azetidinone inhibitors of human tryptase” (Bioorg Med Chem Lett, 2004).

Chain of Plasminogen (Q01177 97-581 limits assumed): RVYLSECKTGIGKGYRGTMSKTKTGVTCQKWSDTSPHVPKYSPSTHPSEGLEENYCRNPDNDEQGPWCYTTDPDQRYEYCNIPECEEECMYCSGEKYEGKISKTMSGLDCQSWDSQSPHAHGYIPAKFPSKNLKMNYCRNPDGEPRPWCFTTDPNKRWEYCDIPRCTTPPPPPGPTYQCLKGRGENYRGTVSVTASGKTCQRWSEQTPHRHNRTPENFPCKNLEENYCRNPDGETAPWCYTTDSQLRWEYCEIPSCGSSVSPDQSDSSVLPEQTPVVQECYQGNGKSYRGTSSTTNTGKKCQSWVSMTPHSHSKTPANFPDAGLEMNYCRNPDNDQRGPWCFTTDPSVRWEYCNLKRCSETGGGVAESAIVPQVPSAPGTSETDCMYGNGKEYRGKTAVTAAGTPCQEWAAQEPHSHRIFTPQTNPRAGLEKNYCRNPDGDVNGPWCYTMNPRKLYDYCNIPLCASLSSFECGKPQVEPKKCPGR
Chain of Plasminogen (Q01177 582-812 limits assumed): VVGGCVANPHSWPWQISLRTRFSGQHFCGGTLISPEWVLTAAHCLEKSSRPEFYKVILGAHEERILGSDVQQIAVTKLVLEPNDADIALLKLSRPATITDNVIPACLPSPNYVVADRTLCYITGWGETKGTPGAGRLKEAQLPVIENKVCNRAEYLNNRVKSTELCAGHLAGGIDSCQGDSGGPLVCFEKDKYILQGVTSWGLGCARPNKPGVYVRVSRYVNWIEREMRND
Chain of Serine protease 1 (P07477 whole entry): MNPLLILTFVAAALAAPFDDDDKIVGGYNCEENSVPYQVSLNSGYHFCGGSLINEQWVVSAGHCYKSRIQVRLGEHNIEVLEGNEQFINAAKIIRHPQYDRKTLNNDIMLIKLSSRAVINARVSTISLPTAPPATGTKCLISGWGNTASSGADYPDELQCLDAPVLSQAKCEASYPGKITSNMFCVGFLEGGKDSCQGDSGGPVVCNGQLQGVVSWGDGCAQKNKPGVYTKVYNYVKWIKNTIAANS
Chain of Coagulation factor X (P00742 41-179 limits assumed): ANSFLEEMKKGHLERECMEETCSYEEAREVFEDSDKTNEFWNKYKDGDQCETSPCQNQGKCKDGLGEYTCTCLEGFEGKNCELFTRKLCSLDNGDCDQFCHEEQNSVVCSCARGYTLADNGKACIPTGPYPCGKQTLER
Chain of Coagulation factor X (P00742 235-488 limits assumed): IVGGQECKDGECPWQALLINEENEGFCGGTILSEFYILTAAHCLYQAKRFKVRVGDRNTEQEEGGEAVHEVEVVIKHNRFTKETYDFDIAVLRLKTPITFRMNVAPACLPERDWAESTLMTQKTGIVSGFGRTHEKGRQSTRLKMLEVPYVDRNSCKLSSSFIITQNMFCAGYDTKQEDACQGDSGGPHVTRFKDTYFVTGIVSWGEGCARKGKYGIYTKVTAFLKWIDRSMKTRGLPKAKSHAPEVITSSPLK
Chain of Tissue-type plasminogen activator (P00750 whole entry): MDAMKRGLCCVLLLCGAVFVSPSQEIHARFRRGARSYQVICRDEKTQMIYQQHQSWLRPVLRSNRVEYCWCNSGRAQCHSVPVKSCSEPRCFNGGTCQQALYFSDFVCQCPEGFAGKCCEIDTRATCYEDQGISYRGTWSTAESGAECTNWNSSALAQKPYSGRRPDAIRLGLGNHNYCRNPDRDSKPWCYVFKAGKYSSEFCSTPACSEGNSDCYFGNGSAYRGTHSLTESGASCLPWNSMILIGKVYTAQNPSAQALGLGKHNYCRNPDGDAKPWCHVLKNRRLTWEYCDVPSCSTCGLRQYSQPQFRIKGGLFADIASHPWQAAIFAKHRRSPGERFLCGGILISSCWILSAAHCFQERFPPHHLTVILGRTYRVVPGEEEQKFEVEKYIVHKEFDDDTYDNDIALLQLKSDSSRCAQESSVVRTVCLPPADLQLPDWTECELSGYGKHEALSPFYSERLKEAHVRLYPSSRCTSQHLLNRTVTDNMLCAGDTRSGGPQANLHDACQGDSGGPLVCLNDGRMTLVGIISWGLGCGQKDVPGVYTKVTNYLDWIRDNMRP

In general, IC50 refers to the concentration needed to halve the response being measured. A lower IC50 goes with greater potency in that assay. In data set [1], `CC(C)C(OC(=O)N1CCN(C(=O)N2C(=O)[C@H](Cc3ccc(N)nc3)[C@H]2C(=O)O)CC1)C(C)C` showed an IC50 of 1053 nM.

As for `CC(C)C(OC(=O)N1CCN(C(=O)N2C(=O)[C@H](Cc3ccnc(N)c3)[C@H]2C(=O)O)CC1)C(C)C`, in data set [1], the IC50 came out at 61 nM.

On to `CC(C)C(OC(=O)N1CCN(C(=O)N2C(=O)[C@H](CCCCCCN)[C@H]2C(=O)O)CC1)C(C)C`, for which, in data set [1], the IC50 came out at 32 nM.

`CC(C)C(OC(=O)N1CCN(C(=O)N2C(=O)[C@H](CCCCN=C(N)N)[C@H]2C(=O)O)CC1)C(C)C` (single isomer, unassigned) yielded an IC50 in data set [1] of 39 nM.

Take `O=C(O)[C@@H]1[C@@H](CCC2CCCNC2)C(=O)N1C(=O)N1CCN(C(=O)CCCCCc2ccccc2)CC1` (stereo not given in full): the half-maximal inhibitory concentration (IC50) in data set [2] is above 33000 nM; in [3], above 33000 nM; in [4], above 33000 nM; in data set [5], 309 nM; in data set [6], above 33000 nM; in data set [7] it was 10000 nM. For the same compound, the IC50 in [1] is recorded as 1.8 nM.

As for `CC(C)C(OC(=O)N1CCN(C(=O)N2C(=O)[C@H](CCCN)[C@H]2C(=O)O)CC1)C(C)C`, the IC50 in data set [1] is reported as above 33000 nM.

With `CC(C)C(OC(=O)N1CCN(C(=O)N2C(=O)[C@H](Cc3ccc(CN)cc3)[C@H]2C(=O)O)CC1)C(C)C`, the concentration for half-maximal inhibition (IC50) in data set [1] amounted to 211 nM.

As for `N=C(N)N1CCC[C@H](C[C@H]2C(=O)N(C(=O)N3CCN(C(=O)CCCCCc4ccccc4)CC3)[C@@H]2C(=O)O)C1`, the IC50 in [1] is given as below 1.7 nM.

`CC(C)C(OC(=O)N1CCN(C(=O)N2C(=O)[C@H](CCCCCN)[C@H]2C(=O)O)CC1)C(C)C` had an IC50 in [1] of 34 nM.

As usually defined, the half-life is the time in which the quantity being followed falls by half. A high value points to slow loss. On to `O=C(O)[C@@H]1[C@@H](CC2CCNCC2)C(=O)N1C(=O)N1CCN(C(=O)CCCCCc2ccccc2)CC1`, for which the half-life in [8] is above 48 h; in data set [9] it was 35 h. The compound further came in with a 50% inhibitory concentration (IC50) in [1] of 1 nM.

The compound `NCCCC[C@H]1C(=O)N(C(=O)N2CCN(C(=O)CCCCCc3ccccc3)CC2)[C@@H]1C(=O)O` returned a half-maximal inhibitory concentration (IC50) in [1] below 1.7 nM.

For the compound `O=C(O)[C@@H]1[C@@H](CC2CCNCC2)C(=O)N1C(=O)Nc1ccccc1`, the IC50 in data set [1] was 147 nM.

Consider `CC(C)C(OC(=O)N1CCN(C(=O)N2C(=O)[C@H](CCCCN)[C@H]2C(=O)O)CC1)C(C)C`, for which the IC50 in data set [1] came to 7 nM.

In turn, `N=C(N)N1CCC(C[C@H]2C(=O)N(C(=O)Nc3ccccc3)[C@@H]2C(=O)O)CC1` displayed an IC50 in data set [1] of 515 nM.

Turning to `CC(C)C(OC(=O)N1CCN(C(=O)N2C(=O)[C@H](CCC3CCNCC3)[C@H]2C(=O)O)CC1)C(C)C`, in data set [1], the IC50 amounted to 1214 nM.

As to `N=C(N)N1CCC[C@@H](C[C@H]2C(=O)N(C(=O)N3CCN(C(=O)CCCCCc4ccccc4)CC3)[C@@H]2C(=O)O)C1`, in data set [1], the IC50 was below 1.7 nM.

`CC(C)C(OC(=O)N1CCN(C(=O)N2C(=O)[C@H](Cc3cccc(CN)c3)[C@H]2C(=O)O)CC1)C(C)C` gave an IC50 in [1] of 19 nM.

`CC(C)C(OC(=O)N1CCN(C(=O)N2C(=O)[C@H](CC3CCNC3)[C@H]2C(=O)O)CC1)C(C)C` (stereo not given in full) returned a half-inhibitory concentration (IC50) in data set [1] of 2605 nM.

What is called pKa is the pH at which an ionisable group is half protonated. High values mean a group that holds its proton tightly, low ones a group that gives up its proton readily. For the compound `Nc1ccccn1` [2-AMINOPYRIDINE], the pKa in data set [10] was 7.

As to `CC(C)C(OC(=O)N1CCN(C(=O)N2C(=O)[C@H](CC3CCNCC3)[C@H]2C(=O)O)CC1)C(C)C`, the IC50 in data set [2] is above 33000 nM; in [3], 7000 nM; in data set [4], above 33000 nM; in data set [5], 6220 nM; in [6] it was above 33000 nM; in data set [7], 935 nM. In addition, in [1], the IC50 was 29 nM.

As to `CC(C)C(OC(=O)N1CCN(C(=O)N2C(=O)[C@H](CC3CCCNC3)[C@H]2C(=O)O)CC1)C(C)C` (stereo not given in full), the IC50 in data set [1] turned out to be 17899 nM.
